From patent US10183273B2, “Absorbent article comprising cyclodextrin complexes” (The Procter & Gamble Company, priority 2016, dated 2019) come the findings set out here.

A short description of this assay: Thiol Vapor Pressure Suppression (TVPS) index, zNose fast GC headspace. The following applies: percentage reduction in butanethiol headspace peak area; 5 μl compound, 37° C. 4 hours. The arrangement: key: % reduction in butanethiol headspace peak area vs control. The source says: Thiol Vapor Pressure Suppression (TVPS) index is a measure of the reduction in butanethiol concentration in the headspace by a compound, as measured using a fast GC instrument, the zNose 7100 (Electronic Sensor Technologies, Newbury Park, Calif.).
Thiol Vapor Pressure Suppression (TVPS) index is a measure of the reduction in butanethiol concentration in the headspace by a compound, as measured using a fast GC instrument, the zNose 7100 (Electronic Sensor Technologies, Newbury Park, Calif.) based on an Surface Acoustic Wave (SAW) Quartz microbalance detector, or equivalent.
Before any measurements the instrument is calibrated according to manufacturer's instructions under the same experimental settings. The instrument has a DB-5 column (also available from Electronic Sensor Technologies, Newbury Park, Calif.) 1 m in length, 0.25 μm phase thickness, and 0.25 mm in diameter.
For analysis, the zNose is programmed with the Sensor Temperature, Inlet Temperature, Valve Temperature, and Initial Column Temperature all set to 40° C. The oven is temperature gradient is programmed at a rate of 10 C°/s from 40° C. to a final temperature of 200° C.
TVPS of a compound is measured in the following way: 100 μl±1 μl of a 1% v/v butanethiol (99%, purity, available from Sigma-Aldrich, St. Louis, Mo.) solution in ethanol (200 proof) is added into a 1 ml vial (8×40 mm). These vials are borosilcate glass straight walled vial. In another 1 ml vial (8×40 mm), 5 μl±0.2 μl of the compound is added. Both open vials are then placed inside a 20 mL headspace vial (22×75 mm), and the vial is immediately sealed using a screw thread closure with PTFE/Silicone septa. The vial is heated to 37° C. for 4 hours. After 4 hours, the vial is removed from the oven and let to equilibrate at 25° C.±2° C. for 15 minutes. The headspace inside the vial is sampled using the zNose is sampled for 10 s and analyzed following the experimental protocol outlined above. Samples with butanethiol alone, and the volatile active alone, are run using the same protocol to identify the peaks for both materials. An acceptable retention index for butanethiol is 720±30. If the peaks butanethiol peak and the volatile material peak co-elute, one skilled in the art can modify the protocol settings to separate those peaks to achieve a minimum resolution of 1.5. For example one can change the column temperature ramp rate. In between samples, the instrument needs to be cleaned to remove any trace materials. To clean the instrument, the instrument is run without samples as needed until no peaks greater than 100 counts are observed.
The amount of butanethiol in the headspace is measured from the area of the peak on the chromatograph for butanethiol (ABtSH,Rx). To calculate the percentage of butanethiol reduction in the headspace, a control with the butanethiol solution without the volatile material is run in the same manner and the area is measured as well (ABtSH,C). TVPS is then measured as the percentage reduction in butanethiol area calculated using the following formula: […]
For `CC(C)=CCCC(C)C=O` (stereo not drawn) [melonal], the TVPS was determined as 20.4.

`CCCCCCC(C=O)=Cc1ccccc1` [Hexylcinnamic aldehyde] showed a TVPS of 8.0.

`CC(C)=CCCC(C)CCCC(C)C=O` (stereo not drawn) [adoxal] returned a TVPS of 24.4.

Consider `CCC/C=C/C=O` [trans-2-hexenal], for which the TVPS worked out at 27.1.

For the molecule `Cc1ccc(C=O)s1` [5-methyl-2-thiophene-carboxaldehyde], the TVPS came to 67.4.

For the molecule `CC(C)c1cccc(C(C)CC=O)c1` (stereo not drawn) [Florhydral], the TVPS is given as 53.3.

As for `C=CC(C)CCC=C(C)CCC=O` (stereo not drawn) [Floral Super], the TVPS is recorded as 52.4.

`CC(C)=CCC/C(C)=C\C=O` [neral]: the TVPS was 17.1.

For the molecule `CC1=CC(C)C(C=O)CC1` (stereo not drawn) [ligustral], the TVPS came to 42.5.
